# Assay results reported in patent US20090075949A1, “Use of dipyridamole in combination with antithrombotics for treatment and prevention of thromboembolic diseases” (priority 2004, published 2009).
# Experiments:
# [1] = ESPS-2; compared with low-dose aspirin / aspirin alone; cited from earlier work
# activated platelets = experiment: Annexin V binding after incubation of cells with DIP; assay type: cell-based
# [2] = local formation of fibrin in experimental animals after angioplasty; assay type: in vivo
# [3] = arterial circulation of the brain, rabbit model; cited from earlier work
compound,measurement,setting,value
"OCCN(CCO)c1nc(N2CCCCC2)c2nc(N(CCO)CCO)nc(N3CCCCC3)c2n1 [dipyridamole, 2,6-bis(diethanolamino)-4,8-dipiperidino-pyrimido[5,4-d]pyrimidine]",reduction of stroke risk,[1],as effective as low-dose aspirin
same,binding of Annexin V to the surface of activated platelets,activated platelets; activated platelets,reduce the binding of Annexin V
same,Annexin V binding sites,"activated platelets; incubation of cells, compared to pre-incubation, patients with anti-platelet therapy resistance (ASA or clopidogrel)",significant reduction
same,inhibition of fibrin formation versus full dose heparin,[2]; experimental animals after angioplasty,exceeds the level of inhibition by full dose anticoagulant treatment with heparin
same,local formation of fibrin,"[2]; pretreatment, arterial tree, high flow rate",reduces the local formation of fibrin significantly
same,thrombus formation,[3],reduce thrombus formation
